The text below walks through data of PubChem BioAssay (NCI).

Several values for one entry are separate records, joined by “and”; a condition that tells them apart may be missing. Equal entries are not always repeated.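 Five compound concentrations were applied to cells in 96-well plates for 48 hours; endpoints were derived by simple linear interpolation of the resulting dose-response curve. At the GI50, growth is halved. TGI marks complete inhibition of growth.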

Test systems include A549 NSCLC; BT-549 breast; DMS 273 small cell lung; LXFL 529 NSCLC; MDA-MB-231 breast; NCI-H23 lung; SF-268 CNS; SNB-75 CNS; SW-620 colon; UACC-62 melanoma.
What all share (experiment): inhibition of tumour cell growth, NCI panel, 48 h

As for `CN(C)CCNc1ccc2ncn3c4ccc(O)cc4c(=O)c1c23`, the TGI turned out to be 4.26 µM in the assay on A549 NSCLC; 28.1 µM in the assay on BT-549 breast; 12.4 µM in the assay with DMS 273 small cell lung; 14.6 µM in the assay with LXFL 529 NSCLC; 5.44 µM with MDA-MB-231 breast; 10.9 µM in the assay with NCI-H23 lung. Also, the TGI in the assay with SF-268 CNS turned out to be 10.7 µM; with SNB-75 CNS, 10.2 µM; in the assay on SW-620 colon, 11.8 µM; in the assay with UACC-62 melanoma, 15.9 µM.
Consider `O=[N+]([O-])c1nccn1CC(O)c1ccccc1` (centres undefined), for which the TGI in the assay on A549 NSCLC, in the assay with DMS 273 small cell lung, with LXFL 529 NSCLC, in the assay on NCI-H23 lung, in the assay with SF-268 CNS and in the assay with SNB-75 CNS was > 100 µM each time. For the same molecule, the TGI in the assay with SW-620 colon and with UACC-62 melanoma was > 100 µM in each case.
Consider `CCOC(=O)C12CCCC1(O)N(NC(=O)OC)C(C)=C2C(=O)OC` (centres undefined), for which the TGI in the assay with A549 NSCLC, in the assay on DMS 273 small cell lung, in the assay with LXFL 529 NSCLC, with NCI-H23 lung, in the assay on SF-268 CNS and in the assay with SW-620 colon was > 100 µM each time. Further, the TGI in the assay with UACC-62 melanoma is > 100 µM.
Turning to `Cc1cccc(-c2nnc3s/c(=C\c4ccc(N(C)C)cc4)c(=O)n23)c1`, the TGI in the assay on A549 NSCLC, in the assay with DMS 273 small cell lung, in the assay on LXFL 529 NSCLC, in the assay on NCI-H23 lung, with SF-268 CNS and in the assay on SNB-75 CNS was > 100 µM in each case. In addition, the TGI in the assay on SW-620 colon and in the assay with UACC-62 melanoma was > 100 µM each time.
With `O=C(CC1(O)C(=O)Nc2c(Cl)cc(Cl)cc21)c1ccccc1` (centres undefined), the TGI with A549 NSCLC, in the assay with DMS 273 small cell lung, with LXFL 529 NSCLC, in the assay with NCI-H23 lung, in the assay with SF-268 CNS and in the assay with SNB-75 CNS was > 100 µM throughout. The TGI in the assay on SW-620 colon and with UACC-62 melanoma was > 100 µM throughout.
Turning to `O=C(O)Cc1cccc2c(=O)cc(-c3ccccc3)oc12`, the GI50 in the assay on A549 NSCLC was 728 µM; with BT-549 breast, > 1 mM; in the assay on MDA-MB-231 breast, 834 µM; with NCI-H23 lung, 581 µM; in the assay on SF-268 CNS it was 814 µM; in the assay on SNB-75 CNS, 345 µM. Moreover, the GI50 is 313 µM with SW-620 colon and 475 µM in the assay on UACC-62 melanoma. For the same molecule, the TGI in the assay on A549 NSCLC was 250 µM and > 1000 µM; with BT-549 breast, 250 µM and > 1000 µM; in the assay on DMS 273 small cell lung it was > 250 µM; in the assay on MDA-MB-231 breast it was > 1000 µM; in the assay with NCI-H23 lung it was > 1000 µM; in the assay on SF-268 CNS it was > 1000 µM. Further, the TGI in the assay with SNB-75 CNS was 249 µM and > 676 µM; in the assay on SW-620 colon it was > 1000 µM; in the assay on UACC-62 melanoma, > 1000 µM.
Consider `Nc1nc(=O)n(C2CCC(CO)O2)cc1F` (centres undefined), for which the TGI with A549 NSCLC, with DMS 273 small cell lung, in the assay on LXFL 529 NSCLC, in the assay with NCI-H23 lung, with SF-268 CNS and in the assay on SNB-75 CNS was > 100 µM in each case. Also, the TGI in the assay with SW-620 colon is > 100 µM.
Take `CC(Oc1ccc2c(-c3ccc(Cl)cc3)cc(=O)oc2c1)C(=O)O` (centres undefined): the TGI in the assay on A549 NSCLC, with LXFL 529 NSCLC, in the assay on NCI-H23 lung, in the assay with SF-268 CNS, with SNB-75 CNS and in the assay with SW-620 colon was > 100 µM each time. Also, the TGI with UACC-62 melanoma was > 100 µM.
Take `CC(C)(C)C(=O)N1C(C(=O)O)Cc2ccccc2[C@@H]1Cc1ccccc1` (some centres undefined): the TGI in the assay on A549 NSCLC, with DMS 273 small cell lung, in the assay on LXFL 529 NSCLC, with NCI-H23 lung, with SF-268 CNS and in the assay on SNB-75 CNS was > 100 µM each time. For the same molecule, the TGI in the assay on SW-620 colon and in the assay on UACC-62 melanoma was > 100 µM throughout.
In the case of `O=C1C2CCN(CC2)C1CN1CCOCC1` (centres undefined), the TGI with A549 NSCLC is 37.5 µM; in the assay with BT-549 breast, 4.53 µM; in the assay with DMS 273 small cell lung it was 25.3 µM; in the assay with LXFL 529 NSCLC it was 3.88 µM; in the assay on MDA-MB-231 breast, 40.5 µM; in the assay with NCI-H23 lung it was 23.9 µM. The TGI with SF-268 CNS worked out at 34.3 µM; with SNB-75 CNS, 36.2 µM; with SW-620 colon it was 3.2 µM; in the assay on UACC-62 melanoma, 30.9 µM.
On to `COC(=O)CCC(=O)Nc1ccc(Cl)cc1C`, for which the TGI in the assay with A549 NSCLC, in the assay on DMS 273 small cell lung, in the assay on LXFL 529 NSCLC, with NCI-H23 lung, in the assay on SF-268 CNS and in the assay on SNB-75 CNS was > 100 µM each time. Besides, the TGI in the assay on SW-620 colon and in the assay on UACC-62 melanoma was > 100 µM throughout.
In the case of `COc1ccc(/C=C/c2cc(OC)c(OC(C)=O)c(OC)c2)cc1`, the TGI with A549 NSCLC was > 100 µM; with DMS 273 small cell lung, > 100 µM; in the assay with LXFL 529 NSCLC, > 100 µM; in the assay on NCI-H23 lung it was 61.4 µM; with SF-268 CNS it was > 100 µM; in the assay with SNB-75 CNS, 60.5 µM. In the assay on UACC-62 melanoma, this molecule had a TGI of 42.8 µM.
In the case of `CCN(CC)CCN(CC)CC.CCN(CC)CCN(CC)CC.[Cu+2].[Cu+2].[O-][Cl+3]([O-])([O-])[O-].[OH3+].[OH3+]`, the GI50 is 30.2 µM in the assay with A549 NSCLC; 22 µM in the assay on DMS 273 small cell lung; > 100 µM in the assay with LXFL 529 NSCLC; 31.1 µM with NCI-H23 lung; 23.9 µM with SF-268 CNS; 23.6 µM in the assay with SNB-75 CNS. The values for the GI50 with SW-620 colon and with UACC-62 melanoma were > 100 µM and 18.3 µM, respectively. Further, the TGI was > 100 µM in the assay on A549 NSCLC; > 100 µM with DMS 273 small cell lung; > 100 µM in the assay on LXFL 529 NSCLC; 77.8 µM in the assay on NCI-H23 lung; 50.3 µM in the assay with SF-268 CNS; 39.4 µM in the assay on SNB-75 CNS. The TGI in the assay with SW-620 colon is > 100 µM; in the assay with UACC-62 melanoma, 36.4 µM.
As for `CSC(=O)C[C@@]12O[C@@H]([C@@H](C)C3CCC4[C@@H]5C(O)CC6=CC(=O)C=C[C@]6(C)C5CC[C@@]43C)C[C@](C)(O1)C(C)(C)O2` (some centres undefined), the TGI with A549 NSCLC was determined as 32 µM; in the assay with DMS 273 small cell lung it was 35.9 µM; in the assay on LXFL 529 NSCLC, 26.4 µM; in the assay on SF-268 CNS, 34.6 µM; in the assay with SW-620 colon, 33.2 µM; in the assay on UACC-62 melanoma it was 27 µM.
On to `Cc1ccc(NCC2(/N=C/c3ccccc3)OC(CO)C(O)C2O)cc1` (centres undefined), for which the TGI in the assay with A549 NSCLC, in the assay on DMS 273 small cell lung, in the assay on LXFL 529 NSCLC, in the assay on NCI-H23 lung, with SF-268 CNS and with SNB-75 CNS was > 100 µM in each case. Also, the TGI in the assay on SW-620 colon and in the assay with UACC-62 melanoma was > 100 µM in each case.
As to `CN(C)c1ccc(/C=c2\sc3nnc(-c4ccco4)n3c2=O)cc1`, the TGI in the assay on A549 NSCLC, with DMS 273 small cell lung, with LXFL 529 NSCLC, in the assay with NCI-H23 lung, in the assay with SF-268 CNS and with SNB-75 CNS was > 100 µM each time. Also, the TGI in the assay with SW-620 colon and with UACC-62 melanoma was > 100 µM each time.
In the case of `Cc1ccc(/C=C/C(=O)c2ccc(Cl)c(Cl)c2)cc1`, the TGI in the assay with A549 NSCLC, in the assay on DMS 273 small cell lung, in the assay with LXFL 529 NSCLC, with NCI-H23 lung, in the assay with SF-268 CNS and in the assay on SNB-75 CNS was > 100 µM in each case. Besides, the TGI in the assay with SW-620 colon and in the assay with UACC-62 melanoma was > 100 µM throughout.
For `CCC[CH2][Sn](=[O])[CH2]CCC`, the GI50 was > 50 µM with A549 NSCLC; > 50 µM with DMS 273 small cell lung; > 50 µM in the assay on LXFL 529 NSCLC; > 50 µM with NCI-H23 lung; > 50 µM in the assay with SF-268 CNS; > 39.7 µM in the assay on SNB-75 CNS. Further, the GI50 in the assay with SW-620 colon and in the assay with UACC-62 melanoma was > 50 µM each time. Further, the TGI in the assay on A549 NSCLC, with DMS 273 small cell lung, in the assay with LXFL 529 NSCLC, in the assay with NCI-H23 lung, in the assay on SF-268 CNS and in the assay with SNB-75 CNS was > 50 µM in each case. The TGI in the assay on SW-620 colon and in the assay on UACC-62 melanoma was > 50 µM each time.
For `CCCCCCCCCCCCSC(=S)c1c(C)[nH]n(-c2ccccc2)c1=O`, the TGI is > 50 µM in the assay with A549 NSCLC; > 50 µM with LXFL 529 NSCLC; 35.8 µM with NCI-H23 lung; > 50 µM in the assay on SF-268 CNS; > 50 µM with SW-620 colon; 25.9 µM with UACC-62 melanoma.
`CC(=O)OC12C(C)=C(C)C(=O)N1c1ccccc1N2C(C)=O` (centres undefined): the TGI with A549 NSCLC, with DMS 273 small cell lung, in the assay on LXFL 529 NSCLC, in the assay on NCI-H23 lung, in the assay on SF-268 CNS and in the assay with SNB-75 CNS was > 100 µM throughout. The TGI with SW-620 colon and in the assay on UACC-62 melanoma was > 100 µM each time.
For `NC(=S)N1N=C2CCCCCC[C@@H]2[C@H]1c1ccccc1`, the TGI with A549 NSCLC, with DMS 273 small cell lung, with LXFL 529 NSCLC, in the assay on NCI-H23 lung, with SF-268 CNS and with SNB-75 CNS was > 100 µM each time. The TGI in the assay with SW-620 colon and in the assay on UACC-62 melanoma was > 100 µM throughout.
